Like-named read-outs stand apart in the source and are kept apart here.
Columns and labels:
Caco-2 = details: Apical pH : Basolateral pH 7.4 : 7.4, Passive&Active, cited from earlier work
Caco-2 permeability = type: in vitro ADME; details: human, Apical pH : Basolateral pH 7.4 : 7.4, Passive&Active, Table S6 source 'Measured'
Description: Precipitation parameters, such as critical supersaturation ratio (CSC) and precipitation rate constant (PRC), were evaluated when precipitation occurs in the neutral intestinal environment after the mixture of solution and undissolved substance is transferred from the gastric chamber in vitro. These parameters were evaluated by fitting the two-stage dissolution profile according to the crystallization kinetics equations [28, 29, 30]. The absorption module of the PBPK models for rivaroxaban, ticagrelor, and PB-201 was developed using the Advanced Dissolution, Absorption and Metabolism (ADAM) model, which incorporates a mechanistic framework based on drug permeability and the diffusion layer model (DLM). The calibrated permeability of drugs, as determined using the Caco-2 Transwell model, was used to represent the permeability of drugs in vivo [31]. The particle size of the APIs used in the formulation development was incorporated into the Particle Population Balance (PPB) option. The full PBPK model, which includes the predicted steady-state distribution volume (Vss) and tissue-plasma partition coefficient (Kp), was utilized to describe the distribution characteristics of these compounds. The Kp scalar was estimated via sensitive analysis to match observed concentration-time (C-T) profiles. […]

[1] = active metabolite of ticagrelor; supplement ref 17; cited from earlier work
[2] = ticagrelor metabolite; supplement ref 14; cited from earlier work
[3] = Additional hepatic/systemic clearance fitted in PBPK model
Text: (§1) S2. PBPK model development and validation physicochemical parameters for these three model drugs, including protein binding and Blood-to-Plasma (B/P) ratio, were obtained from experimental results, while log P and pKa were estimated based on the molecular formula using Gastro Plus ADMET software (version 10.3, […]
(§2) S2.1. Rivaroxaban PBPK model development and validation
S2.1.1. Rivaroxaban PBPK model development for metabolism and elimination module […]
its systemic clearance, CLint_CYP3A4, CLint_CYP2J2 and CLHLM were fitted according to the metabolic fraction of rivaroxaban in vivo and concentration-time profiles from the SAD clinical trial in Caucasian subjects under fasted state. […]
permeability-limited kidney and liver models were employed to account for the active efflux […]
Physicochemical properties

CYP3A4 = CYP3A4 intrinsic clearance fitted in PBPK model; details: Fitted to clinical PK profiles
Text: as §1, §2
S2.1.1. Rivaroxaban PBPK model development for metabolism and elimination module Given that the metabolic fractions of CYP3A4 and CYP2J2 to the systemic clearance of rivaroxaban were approximately 18% and 14% [1], respectively, and liver hydrolases contributed to about 14% of its systemic clearance, CLint_CYP3A4, CLint_CYP2J2 and CLHLM were fitted according to the metabolic fraction of rivaroxaban in vivo and concentration-time profiles from the SAD clinical trial in Caucasian subjects under fasted state. Considering that rivaroxaban was a substrate of P-gp transporter, and that about 36% and 7% of the parent drug were directly excreted by the kidney and liver, respectively, rivaroxaban may undergo active efflux through the kidney and liver in vivo [2]. Consequently, permeability-limited kidney and liver models were employed to account for the active efflux mechanism of P-gp for rivaroxaban. These models include both passive diffusion and active transport.
Clearances for passive diffusion in the kidney and liver was calculated using Equation S1 [5] and Equation S2 [6], respectively.
CL௉஽,௜ =2×P௔௣௣ × TSA௜ ሺS1ሻ where CLPD,i is the passive diffusion clearance of the drug in compartment i, Papp is the apparent permeability of the drug, and the TSAi is the regional tubular surface area of compartment i.
Log CL௉஽ =0.82×logD଻.ସ +0.5 ሺS2ሻ where CLPD is the passive diffusional clearance of APIs in the liver, and log D 7.4 is the oil-water partition coefficient at pH 7.4 [6] […]
Blood-to-plasma partition ratio 0.714 Measured
Fraction unbound in plasma 0.065 Measured […]
Caco-2(10-6cm/s) (Rivaroxaban) 8.103 Measured […]

For `COCCc1ccc(OCC(O)CNC(C)C)cc1` (centres unmarked) [Metoprolol], the Caco-2 permeability (Caco-2; supplement ref 19) is listed as 15.0 10-6cm/s.
For `CC(C)NCC(O)COc1cccc2ccccc12` (centres unmarked) [Propranolol], the Caco-2 permeability (Caco-2; supplement ref 4) is listed as 31 10-6cm/s and the Papp (Caco-2 permeability) is listed as 29.4 ×10⁻⁶ cm/s.
In the case of `CN/C(=N/CCSCc1nc[nH]c1C)NC#N` [Cimetidine], the Caco-2 permeability (Caco-2; supplement ref 4) is given as 2.36 10-6cm/s.
For `CCCSc1nc(N[C@@H]2C[C@H]2c2ccc(F)c(F)c2)c2nnn([C@@H]3C[C@H](O)[C@@H](O)[C@H]3O)c2n1` [AR-C124910XX], the renal excretion [1] is given as “about 0.04%”, the “Fraction unbound in plasma” value [2] is given as 0.002 and the “Additional HLM CLint” value [3] is given as 5000 μL/min/mg protein. The “Intrinsic clearance of CYP 3A4” value (CYP3A4) was 6.000 µL/min/pmol.

— paper PMC11511194, “Key Factors for Improving Predictive Accuracy and Avoiding Overparameterization of the PBPK Absorption Model in Food Effect Studies of Weakly Basic Water-Insoluble Compounds in Immediate Release Formulations” (Pharmaceutics, 2024)
